Measurements as given in PMC7497630, “Coibamide A Targets Sec61 to Prevent Biogenesis of Secretory and Membrane Proteins” (ACS Chemical Biology, 2020).
Like-named read-outs stand apart in the source and are kept apart here. Bridge positions count the residues as written; N and C are the ends. Square brackets hold non-standard residues; d marks the D form. Peptide text beside a SMILES is read from it. * marks the point of attachment. NMe2Val = CC(C)[C@@H](C(=O)*)N(C)C; NMeI = CC[C@H](C)[C@H](NC)C(=O)O; NMeT = CN[C@H](C(=O)O)[C@@H](C)O; NMeL = CN[C@@H](CC(C)C)C(=O)O; dHiv = CC(C)[C@@H](O)C(=O)O; NMeS = CN[C@@H](CO)C(=O)O; dNMeA = CN[C@H](C)C(=O)O

Assays:
Sec61α = assay: Photoaffinity labeling competition in sheep rough microsomes; format: binding; details: SRM with 100 nM Sec61, 30 min with competitor, then 100 nM photo-CbA, UV 10 min, TAMRA in-gel fluorescence
Protocol: Figure 2 Photo-cross-linking of photo-CbA to Sec61α and CbA stabilization of Sec61 in cells. Photocotransin (CT7) or photocoibamide (pCbA) cross-linking to cells or sheep rough microsomes (SRM). Samples were photolyzed and the covalent adduct detected by click-chemistry to TAMRA-azide reporter and in-gel fluorescence scanning and Western blotting. (A) A431 cell lines were first incubated with CbA or carrier, followed by incubation with photo-CbA, photolysis, and click chemistry. Following SDS PAGE, lysates were queried for in gel fluorescence and subsequently transferred for anti-Sec61α and anti-FLAG Western Blot. Arrows indicate Sec61 (with or without a 10 kDa insert), star indicates nonspecific WB signal, triangle indicates free TAMRA dye within the gel. (B) As in A but in SRMs. […] Heat-treated cell suspensions were snap frozen, lysates cleared by centrifugation, and the soluble fraction analyzed by SDS-PAGE and Western blotting. […] (F) Quantification of immunoblot data shown in E. Sec61α band intensity was normalized to tubulin, and data points were fitted using nonlinear regression analysis.
The photoaffinity labeling and click chemistry with microsomes were done as previously described.[17] […] The labeled proteins were analyzed by SDS-PAGE and in-gel fluorescence. […]

[1] = tested on: MDA-MB-231 breast cancer cells; assay: Cell viability, MTS end-point assay; format: cell-based, human; details: synthetic CbA, 72 h, vehicle 0.1% DMSO
Protocol: (§1) Figure 1 Cytotoxicity of synthetic and Pra-containing coibamides. (A) Structure of CbA. (B) Human MDA-MB-231 breast cancer cells were treated with increasing concentrations of synthetic CbA or vehicle (0.1% DMSO) and cell viability assessed at 72 h by an MTS end-point assay. (C) Structure of Photo-CbA. (D) Human HCT116 cells were treated with increasing concentrations of synthetic or photo-CbA in 0.1% DMSO, and cell viability assessed at 72 h by Alamar Blue assay. TEXT PRINTED IN THE PICTURE: (B) CbA: MDA-MB-231 cell line: IC50(nM): 1.6 | (D) CbA: HCT 116 cell line: IC50(nM): 29.2 | (D) Photo-CbA: HCT 116 cell line: IC50(nM): 6.5
A431, HEK293T, and HEK293FRT cells were cultured in DMEM supplemented with 10% FBS. HCT-116 cells were cultured in McCoy’s 5A media supplemented with 10% FBS. U87-MG cells were cultured in Minimum Essential Media (MEM) with 10% FBS, L-glutamine (2 mM), and 1% penicillin and streptomycin. MDA-MB-231 cells were cultured in MEM with Earl’s salts plus 1% penicillin/streptomycin and 10% FBS. All cell lines were incubated at 37 °C under 5% CO2. The activity of synthetic coibamide and photoaffinity analogues was tested in MDA-MB-231 and A549 cells after 72 h by MTS assay. […] Viability was estimated by the addition of Alamar Blue (Life Technologies) and measuring fluorescence after a further 4 h. […]

HCT116 cells = assay: Cell viability, Alamar Blue assay; format: cell-based, human
Protocol: as §1
(§2) Figure 5 CbA mode of inhibition is specific compared to known Sec61 inhibitors. (A) Cell viability was measured by Alamar Blue assay (mean ± SD, n = 4, all cell lines assayed simultaneously) for HCT-116 cell lines isolated on the basis of CbA resistance in the presence of concentration series of indicated compounds. (B) Cell viability was measured by Alamar Blue assay (mean ± SD, n = 4, all cell lines assayed simultaneously) for HEK293FRT cells stably expressing Sec61α mutants in the presence of concentration series of indicated compounds. (C) Comparison of published NCI60 data for CbA,[3] AprA,[11] and IpoF.[33] The heat map was derived by plotting each GI50 value divided by the median GI50 for that compound. X indicates a cell line that was not tested. Closed arrowhead indicates cell lines with most notable differences across the three compounds. […]
(§3) A431, HEK293T, and HEK293FRT cells were cultured in DMEM supplemented with 10% FBS. […] Viability was estimated by the addition of Alamar Blue (Life Technologies) and measuring fluorescence after a further 4 h. […]

[2] = tested on: HCT116 resistant line 100-1; assay: Cell viability, Alamar Blue, CbA-resistant line; format: cell-based, human; details: 72 h, n = 4 (Figure 5A), read-out: HCT116 Resistant lines IC50 (100-1)
Protocol: (§4) Figure 5 CbA mode of inhibition is specific compared to known Sec61 inhibitors. (A) Cell viability was measured by Alamar Blue assay (mean ± SD, n = 4, all cell lines assayed simultaneously) for HCT-116 cell lines isolated on the basis of CbA resistance in the presence of concentration series of indicated compounds. (B) Cell viability was measured by Alamar Blue assay (mean ± SD, n = 4, all cell lines assayed simultaneously) for HEK293FRT cells stably expressing Sec61α mutants in the presence of concentration series of indicated compounds. (C) Comparison of published NCI60 data for CbA,[3] AprA,[11] and IpoF.[33] The heat map was derived by plotting each GI50 value divided by the median GI50 for that compound. X indicates a cell line that was not tested. Closed arrowhead indicates cell lines with most notable differences across the three compounds. TEXT PRINTED IN THE PICTURE: (A) CbA: HCT116 Resistant lines IC50(nM): 24 (WT); HCT116 Resistant lines IC50(nM): 6500 (100-1); HCT116 Resistant lines IC50(nM): 7500 (100-2); HCT116 Resistant lines IC50(nM): 5800 (100-3); HCT116 Resistant lines IC50(nM): 7800 (100-4); HCT116 Resistant lines IC50(nM): 3800 (100-5) | (A) AprA: HCT116 Resistant lines IC50(nM): 80 (WT); HCT116 Resistant lines IC50(nM): >10000 (100-1); HCT116 Resistant lines IC50(nM): >10000 (100-2); HCT116 Resistant lines IC50(nM): >10000 (100-3); HCT116 Resistant lines IC50(nM): >10000 (100-4); HCT116 Resistant lines IC50(nM): >10000 (100-5) | (B) CbA: Sec61α engineered lines IC50(nM): 12 (WT); Sec61α engineered lines IC50(nM): 83 (R66I); Sec61α engineered lines IC50(nM): 20 (T86M); Sec61α engineered lines IC50(nM): 81 (S82P) | (B) AprA: Sec61α engineered lines IC50(nM): 24 (WT); Sec61α engineered lines IC50(nM): >10000 (R66I); Sec61α engineered lines IC50(nM): 2500 (T86M); Sec61α engineered lines IC50(nM): 4700 (S82P)
(§5) A431, HEK293T, and HEK293FRT cells were cultured in DMEM supplemented with 10% FBS. HCT-116 cells were cultured in McCoy’s 5A media supplemented with 10% FBS. U87-MG cells were cultured in Minimum Essential Media (MEM) with 10% FBS, L-glutamine (2 mM), and 1% penicillin and streptomycin. MDA-MB-231 cells were cultured in MEM with Earl’s salts plus 1% penicillin/streptomycin and 10% FBS. All cell lines were incubated at 37 °C under 5% CO2. The activity of synthetic coibamide and photoaffinity analogues was tested in MDA-MB-231 and A549 cells after 72 h by MTS assay. All other cell viability assays were performed by seeding PerkinElmer Viewplate-96 plates at a density of 2.5 × 10^3 cells per well. Cells were allowed 24 h to adhere and then treated with indicated concentrations of inhibitors or vehicle (0.1% DMSO) for a further 72 h. Viability was estimated by the addition of Alamar Blue (Life Technologies) and measuring fluorescence after a further 4 h. Pulse-labeling experiments were performed by seeding six-well plates with 5 × 10^5 cells per well and allowing 24 h for cells to adhere. Cells were washed twice with PBS, then exchanged into Met-Cys free media with indicated concentrations of inhibitors for 30 min. 100 μCi of PerkinElmer EXPRE^35S^35S Protein Labeling Mix was then added per well. Media wer collected, and the cells were harvested by scraping them into ice cold PBS after 30 min. Total protein was acquired by RIPA extraction from the cell pellet. Glycosylated protein was acquired by Concanavalin A purification, and secreted protein was acquired by TCA precipitation of the media. […]

[3] = tested on: HCT116 resistant line 100-2; assay: Cell viability, Alamar Blue, CbA-resistant line; format: cell-based, human; details: 72 h, n = 4 (Figure 5A), read-out: HCT116 Resistant lines IC50 (100-2)
Protocol: as §4, §5

[4] = tested on: HCT116 resistant line 100-3; assay: Cell viability, Alamar Blue, CbA-resistant line; format: cell-based, human; details: 72 h, n = 4 (Figure 5A), read-out: HCT116 Resistant lines IC50 (100-3)
Protocol: as §4, §5

[5] = tested on: HCT116 resistant line 100-4; assay: Cell viability, Alamar Blue, CbA-resistant line; format: cell-based, human; details: 72 h, n = 4 (Figure 5A), read-out: HCT116 Resistant lines IC50 (100-4)
Protocol: as §4, §5

[6] = tested on: HCT116 resistant line 100-5; assay: Cell viability, Alamar Blue, CbA-resistant line; format: cell-based, human; details: 72 h, n = 4 (Figure 5A), read-out: HCT116 Resistant lines IC50 (100-5)
Protocol: as §4, §5

[7] = molecular target: HEK293FRT cells stably expressing Sec61α WT (Homo sapiens, UniProt P61619); assay: Cell viability, Alamar Blue, Sec61α engineered lines; format: cell-based; details: 72 h, n = 4 (Figure 5B)
Protocol: as §2, §3

[8] = tested on: A549 human lung adenocarcinoma cells; details: 72 h

Chain of HEK293FRT cells stably expressing Sec61α WT (P61619 whole entry): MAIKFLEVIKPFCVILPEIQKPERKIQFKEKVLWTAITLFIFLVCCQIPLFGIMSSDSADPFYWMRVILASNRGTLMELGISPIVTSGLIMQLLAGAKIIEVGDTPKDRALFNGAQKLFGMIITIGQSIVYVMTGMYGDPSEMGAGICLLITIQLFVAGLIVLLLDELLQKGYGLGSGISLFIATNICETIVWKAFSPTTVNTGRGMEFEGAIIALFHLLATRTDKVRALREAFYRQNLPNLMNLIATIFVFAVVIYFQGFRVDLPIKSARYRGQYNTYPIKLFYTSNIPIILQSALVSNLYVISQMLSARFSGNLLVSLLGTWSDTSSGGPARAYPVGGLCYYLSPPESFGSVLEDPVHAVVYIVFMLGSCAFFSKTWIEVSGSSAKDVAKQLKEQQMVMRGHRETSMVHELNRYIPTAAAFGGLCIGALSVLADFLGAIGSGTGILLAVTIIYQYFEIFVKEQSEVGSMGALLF

| SMILES | competition of photo-CbA cross-linking to Sec61α (Sec61α) | IC50 [1] | IC50 (HCT116 cells; HCT116, 72 h, 0.1% DMSO (Figure 1D), read-out: IC50) | IC50 (HCT116 cells; HCT116 WT, 72 h, mean ± SD, n = 4 (Figure 5A), read-out: HCT116 Resistant lines IC50 (WT)) | IC50 [2] | IC50 [3] | IC50 [4] | IC50 [5] | IC50 [6] | IC50 [7] | IC50 [8] |
| --- | --- | --- | --- | --- | --- | --- | --- | --- | --- | --- | --- |
| CC(=C\C=C\C(C)=C\[C@H](O)[C@@H](O)C[C@H](C)O)/C=C(C)/C=C/C(=O)O[C@H]1CCCC(=O)O[C@@H]([C@@H](C)C/C(C)=C/[C@@H](C)[C@H](O)C[C@@H](C)O)C/C=C(\C)C[C@@H]1C [mycolactone] | prevented photo-CbA cross-linking in a concentration-dependent manner |  |  |  |  |  |  |  |  |  |  |
| CC[C@H](C)[C@H]1C(=O)N[C@@H](C)C(=O)N(C)[C@@H](CC(C)C)C(=O)N[C@@H](Cc2ccc(OC)cc2)C(=O)N(C)[C@H](C)C(=O)O[C@H](C)[C@H](N(C)C(=O)[C@H](CC(C)C)N(C)C(=O)[C@H](COC)N(C)C(=O)[C@H](OC(=O)[C@H](C(C)C)N(C)C)C(C)C)C(=O)N(C)[C@@H](COC)C(=O)N1C [CbA, Coibamide A] (NMe2Val-[dHiv][NMeS](Me)[NMeL][NMeT][NMeS](Me)[NMeI]A[NMeL]Y(Me)[dNMeA]; ester 4-C) |  | 1.6 nM | 29.2 nM | 24 nM | 6500 nM | 7500 nM | 5800 nM | 7800 nM | 3800 nM | 12 nM | 2.1 ± 0.7 nM |
